Data: patent US20110195951A1, “DIAZAINDOLE DERIVATIVES AND THEIR USE IN THE INHIBITION OF C-JUN N-TERMINAL KINASE” (EISAI R&D MANAGEMENT CO., LTD., priority 2008, published 2011)

Biological target: JNK3 (Homo sapiens, UniProt P53779)
Test: JNK3 SPA assay (phosphorylation of GST-c-Jun)
Assay type: biochemical
Details: 3.33 μM ATP, GST-c-Jun substrate, 30 minutes at room temperature, read-out: IC50 values for compounds (I) against JNK3
Method: JNK1, JNK2, JNK3—SPA Assay
• 1. The compound was dissolved in DMSO to a convenient concentration and this was diluted in 10% DMSO to a five times concentrate of the desired starting concentration (frequently 1:100). • 2. 10 μl of 500 mM EDTA was added to alternative wells of the Opti-plate row, which would receive kinase reaction plus DMSO. This created the negative control. • 3. For the JNK2 and JNK3 assay, compounds were prepared in six 2-fold dilutions with water and each concentration is tested in duplicate. For the JNK1 assay compounds are prepared in four 5-fold dilutions with water which are tested in triplicate. Controls were treated identically. • 4. […] per well of each compound concentration was transferred to an Opti-plate, in duplicate. • 5. 30 μl (JNK2/3 SPA) or 50 μl (JNK1 SPA) of substrate solution (25 mM HEPES pH 7.5, 10 mM magnesium acetate with 3.33 μM ATP (JNK2/3) or 2 μM ATP (JNK1), approximately 7.5 kBq [γ-^33P] ATP, GST-c-Jun, in water) was added to each well. • 6. 50 μl (JNK2/3 SPA) or 30 μl (JNK1 SPA) of kinase solution (JNK in 25 mM HEPES pH 7.5, 10 mM Mg Acetate) was added to each well.
• 7. The plate was incubated for 30 minutes at room temperature. • 8. 100 μl of bead/stop solution was added to each well (5 mg/ml glutathione-PVT-SPA beads, 40 mM ATP in PBS). • 9. Plates were sealed and incubated for 30 minutes at room temperature, centrifuged for 10 minutes at 2500 g and counted. • 10. The IC50 values were calculated as the concentration of the compound being tested at which the phosphorylation of c-Jun was decreased to 50% of the control value.

Chain of JNK3 (P53779 whole entry, species assumed): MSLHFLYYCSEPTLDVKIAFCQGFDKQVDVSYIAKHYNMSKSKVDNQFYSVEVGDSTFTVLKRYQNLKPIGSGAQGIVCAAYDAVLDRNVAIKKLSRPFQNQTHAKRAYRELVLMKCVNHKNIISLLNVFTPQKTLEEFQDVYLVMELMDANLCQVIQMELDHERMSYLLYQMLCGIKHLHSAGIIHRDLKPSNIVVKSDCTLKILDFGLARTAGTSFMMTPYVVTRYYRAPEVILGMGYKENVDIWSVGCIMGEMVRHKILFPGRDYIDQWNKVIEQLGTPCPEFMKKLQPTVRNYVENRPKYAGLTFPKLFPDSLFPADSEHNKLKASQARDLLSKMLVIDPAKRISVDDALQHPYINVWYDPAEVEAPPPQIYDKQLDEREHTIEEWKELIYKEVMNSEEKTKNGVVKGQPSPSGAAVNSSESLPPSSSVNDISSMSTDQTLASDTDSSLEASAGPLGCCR

Point of comparison: Cn1cc(-c2c[nH]c3ncc(C4CCCCC4)nc23)cn1 [Example 4, 2-cyclohexyl-7-(1-methyl-1H-pyrazol-4-yl)-5H-pyrrolo[3,2-b]pyrazine], IC50 178 nM. Against it:
- Cn1cc(-c2n[nH]c3ncc([C@H]4CC[C@@H](N5CCCOCC5)CC4)cc23)cn1 [Example 3, 4-((1s,4s)-4-(3-(1-methyl-1H-pyrazol-4-yl)-1H-pyrazolo[3,4-b]pyridin-5-yl)cyclohexyl)-1,4-oxazepane] — higher, > 2000 nM
- Cn1cc(-c2n[nH]c3ncc([C@H]4CC[C@H](N5CCCOCC5)CC4)cc23)cn1 [Example 2, 4-((1r,4r)-4-(3-(1-methyl-1H-pyrazol-4-yl)-1H-pyrazolo[3,4-b]pyridin-5-yl)cyclohexyl)-1,4-oxazepane] — higher, > 2000 nM
- Cn1cc(-c2n[nH]c3ncc(C4CCCCC4)cc23)cn1 [Example 1, 5-cyclohexyl-3-(1-methyl-1H-pyrazol-4-yl)-1H-pyrazolo[3,4-b]pyridine] — 9.6-fold higher, 1700 nM
